Measured values from US20230235277A1, “3D Tissue Culture Materials and Processes for Producing Same” (INSPHERO AG, priority 2014, published 2023).
“Also recorded” adds a separate entry of the source.

Columns and labels:
IL-6 secretion = test: Quantification of IL-6 secretion of liver microtissues by ELISA after LPS induction; assay type: cell-based, human; conditions: hepatosphere induced for 48 h with 10 µg/ml LPS
human liver microtissues [1] = test: Long-term toxicity testing with human liver microtissues, 14 days treatment with 3 re-dosing; assay type: cell-based; conditions: 336 h, read-out: IC50 value of toxicity (cell death), dose-response
[2] = system: 2D cultures of human hepatocytes; test: Toxicity in 2D cultures of human hepatocytes; assay type: cell-based; conditions: Hepatocyte, read-out: calculated IC50 value in 2D cultures of human hepatocytes
human liver microtissues [3] = test: Inflammation-mediated toxicity testing with human liver microtissues in presence and absence of LPS; assay type: cell-based

Molecule: lipopolysaccharide [LPS]
- increase in IL-6 secretion (IL-6 secretion): tenfold increase; also recorded: elevated levels of IL-6 secretion

Molecule: CC(=O)Nc1ccc(O)cc1 [acetaminophen]
- IC50 (human liver microtissues [1]): 754 µM

Molecule: O=C(O)Cc1ccccc1Nc1c(Cl)cccc1Cl [diclofenac]
- IC50 (human liver microtissues [1]): 179 µM
- IC50 [2]: 331 µM

Molecule: N[C@@H]1[C@H]2CN(c3nc4c(cc3F)c(=O)c(C(=O)O)cn4-c3ccc(F)cc3F)C[C@@H]12 [trovafloxacin]
- IC50 (human liver microtissues [3]; absence of LPS (−LPS), read-out: IC50 (hepatotoxic threshold) of induced toxicity without LPS): 220 µM
- IC50 (human liver microtissues [3]; presence of LPS (+LPS), read-out: IC50 (hepatotoxic threshold) of induced toxicity in the presence of LPS): 71 µM
